Assays:
human EHMT2 913-1193 = target: T1, human EHMT2 913-1193 (Homo sapiens, UniProt Q96KQ7); assay: EHMT2 enzyme assay on histone peptide substrate; type: biochemical; details: Table 3A; histone H3 1-15 peptide, balanced conditions; read-out: EHMT2 (IC50 μM)
T1 construct: recombinant purified human EHMT2 913-1193, Viva; purchased Viva
T1 sequence (Q96KQ7 913-1193): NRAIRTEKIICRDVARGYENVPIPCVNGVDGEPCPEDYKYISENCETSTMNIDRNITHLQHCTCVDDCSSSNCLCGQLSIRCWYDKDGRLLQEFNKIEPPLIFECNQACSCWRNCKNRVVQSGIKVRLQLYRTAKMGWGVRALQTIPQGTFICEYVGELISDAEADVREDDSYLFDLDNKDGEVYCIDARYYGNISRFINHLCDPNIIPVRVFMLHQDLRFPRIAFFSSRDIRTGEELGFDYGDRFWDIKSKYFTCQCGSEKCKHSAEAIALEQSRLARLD
From the text: Recombinant purified human EHMT2 913-1193 ([…]) synthesized by Viva was used for all experiments. Biotinylated histone peptides were synthesized by Biopeptide and HPLC-purified to >95% purity. Streptavidin Flashplates and seals were purchased from PerkinElmer and 384 Well V-bottom Polypropylene Plates were from Greiner. ^3H-labeled S-adenosylmethionine (^3H-SAM) was obtained from American Radiolabeled Chemicals with a specific activity of 80 Ci/mmol. Unlabeled SAM and S-adenosylhomocysteine (SAH) were obtained from American Radiolabeled Chemicals and Sigma-Aldrich respectively. Flashplates were washed in a Biotek ELx-405 with 0.1% Tween. 384-well Flashplates and 96-well filter binding plates were read on a TopCount microplate reader (PerkinElmer). Compound serial dilutions were performed on a Freedom EVO (Tecan) and spotted into assay plates using a Thermo Scientific Matrix PlateMate (Thermo Scientific). Reagent cocktails were added by Multidrop Combi (Thermo Scientific).
10-point curves of test compounds were made on a Freedom EVO (Tecan) using serial 3-fold dilutions in DMSO, beginning at 2.5 mM (final top concentration of compound was […] and the DMSO was 2%). A 1 μL aliquot of the inhibitor dilution series was spotted in a polypropylene 384-well V-bottom plate (Greiner) using a Thermo Scientific Matrix PlateMate (Thermo Scientific). The 100% inhibition control consisted of 1 mM final concentration of the product inhibitor S-adenosylhomocysteine (SAH, Sigma-Aldrich). Compounds were incubated for 30 minutes with 40 μL per well of 0.031 nM EHMT2 (recombinant purified human EHMT2 913-1193, Viva) in 1× assay buffer (20 mM Bicine [pH 7.5], 0.002% Tween 20, 0.005% Bovine Skin Gelatin and 1 mM TCEP). 10 μL per well of substrate mix comprising assay buffer, ^3H-SAM (^3H-labeled S-adenosylmethionine, American Radiolabeled Chemicals, specific activity of 80 Ci/mmol), unlabeled SAM (American Radiolabeled Chemicals), and peptide representing histone H3 residues 1-15 containing C-terminal biotin (appended to a C-terminal amide-capped lysine, synthesized by Biopeptide and HPLC-purified to greater than 95% purity) were added to initiate the reaction (both substrates were present in the final reaction mixture at their respective Km values, an assay format referred to as “balanced conditions”). Reactions were incubated for 60 minutes at room temperature and quenched with 10 μL per well of 400 μM unlabeled SAM, then transferred to a 384-well streptavidin Flashplate (PerkinElmer) and washed in a Biotek ELx-405 well washer with 0.1% Tween after 60 minutes. 384-well Flashplates were read on a TopCount microplate reader (PerkinElmer).

[1] = test system: H3K9me2 in MDA-MB-231 cells; assay: MDA-MB-231 H3K9me2 in-cell western assay (EHMT2 ICW); type: cell-based; details: Homo sapiens, Table 3A, read-out: ICW (IC50 μM)
From the text: MDA-MB-231 cell line was purchased from ATCC (Manassas, Va., USA). RPMI/Glutamax medium, Penicillin-Streptomycin, Heat Inactivated Fetal Bovine Serum, and D-PBS were purchased from Life Technologies (Grand Island, N.Y., USA). Odyssey blocking buffer, 800 CW goat anti-mouse IgG (H+L) antibody, and Licor Odyssey Infrared Scanner were purchased from Licor Biosciences, Lincoln, Nebr., USA. H3K9me2 mouse monoclonal antibody (Cat #1220) was purchased from Abcam (Cambridge, Mass., USA). 16% Paraformaldehyde was purchased from Electron Microscopy Sciences, Hatfield, Pa., USA). MDA-MB-231 cells were maintained in complete growth medium (RPMI supplemented with 10% v/v heat inactivated fetal bovine serum) and cultured at 37° C. under 5% C02. UNC0638 was purchased from Sigma-Aldrich (St. Louis, Mo., USA).
General Procedure for MDA-MB-231 HEK9me2 in-Cell Western Assay.
Compound (100 nL) was added directly to 384-well cell plate. MDA-MB-231 cells (ATCC) were seeded in assay medium (RPMI/Glutamax supplemented with 10% v/v heat inactivated fetal bovine serum and 1% Penicillin/Streptomycin, Life Technologies) at a concentration of 3,000 cells per well to a Poly-D-Lysine coated 384-well cell culture plate with 50 μL per well. Plates were incubated at 37° C., 5% CO2 for 48 hours (BD Biosciences 356697). […] After the incubation, 50 μL per well of 8% paraformaldehyde (Electron Microscopy Sciences) in PBS was added to the plates and incubated at room temperature for 20 minutes. Plates were transferred to a Biotek 406 plate washer and washed 2 times with 100 μL per well of wash buffer (1×PBS containing 0.3% Triton X-100 (v/v)). Next, 60 μL per well of Odyssey blocking buffer (Licor Biosciences) was added to each plate and incubated for 1 hour at room temperature. Blocking buffer was removed and 20 μL of monoclonal primary antibody α-H3K9me2 (Abcam) diluted 1:800 in Odyssey buffer with 0.1% Tween 20 (v/v) were added and plates were incubated overnight (16 hours) at 4° C. Plates were washed 5 times with 100 μL per well of wash buffer. Next 20 μL per well of secondary antibody was added (1:500 800 CW donkey anti-mouse IgG (H+L) antibody (Licor Biosciences), 1:1000 DRAQ5 (Cell Signaling Technology) in Odyssey buffer with 0.1% Tween 20 (v/v)) and incubated for 1 hour at room temperature. The plates were washed 5 times with 100 μL per well wash buffer then 2 times with 100 μL per well of water. Plates were allowed to dry at room temperature then imaged on a Licor Odyssey Infrared Scanner (Licor Biosciences) which measured integrated intensity at 700 nm and 800 nm wavelengths. Both 700 and 800 channels were scanned.
First, the ratio for each well was determined by:
Each plate included fourteen control wells of DMSO only treatment (Minimum Inhibition) as well as fourteen control wells (background wells) for maximum inhibition treated with control compound UNC0638 (Background wells).
The average of the ratio values for each well was calculated and used to determine the percent inhibition for each test well in the plate. Control compound was serially diluted three-fold in DMSO for a total of 10 test concentrations beginning at 1 μM. Percent inhibition was calculated as: […]
IC50 curves were generated using triplicate wells per concentration of compound. The IC50 is the concentration of compound at which measured methylation is inhibited by 50% as interpolated from the dose response curves. IC50 values were calculated using a non-linear regression (variable slope-four parameter fit model) with by the following formula:
where Top is fixed at 100% and Bottom is fixed to 0%, [I]=concentration of inhibitor, IC50=half maximal inhibitory concentration and n=Hill Slope.

Structure (SMILES)	IC50 (human EHMT2 913-1193) [µM]	IC50 [1] [µM]
CNCc1cn(-c2cc(Nc3nc(C)cc(NC)n3)ccc2Cl)nn1 [Compound A1]	< 0.01	0.01 to 0.1
CNC1=Nc2cc(-n3cc([C@H]4CCCN4)nn3)c(Cl)cc2C12CCC2 [Compound A2R, (R)-5′-chloro-N-methyl-6′-(4-(pyrrolidin-2-yl)-1H-1,2,3-triazol-1-yl)spiro[cyclobutane-1,3′-indol]-2′-amine]	< 0.01	0.01 to 0.1
CNC1=Nc2cc(-n3cc([C@@H]4CCCN4)nn3)c(Cl)cc2C12CCC2 [Compound A2S, (S)-5′-chloro-N-methyl-6′-(4-(pyrrolidin-2-yl)-1H-1,2,3-triazol-1-yl)spiro[cyclobutane-1,3′-indol]-2′-amine]	0.1 to 1	> 1
CNC1=Nc2cc(-n3cc(C4CCCN4)nn3)c(Cl)cc2C12CCC2 (stereo not shown) [Compound A2]	0.01 to 0.1	0.1 to 1
CNCc1cn(-c2c(OC)ccc(Nc3nc(C)cc(NC)n3)c2F)nn1 [Compound A3, N2-(2-fluoro-4-methoxy-3-[4-[(methylamino)methyl]-1H-1,2,3-triazol-1-yl]phenyl)-N4,6-dimethylpyrimidine-2,4-diamine]	0.01 to 0.1	0.01 to 0.1
CNc1cc(C)nc(Nc2ccc(OC)c(-n3cc([C@H]4CCCN4)nn3)c2F)n1 [Compound A4R]	0.01 to 0.1	0.01 to 0.1
CNc1cc(C)nc(Nc2ccc(OC)c(-n3cc([C@@H]4CCCN4)nn3)c2F)n1 [Compound A4S]	0.1 to 1	0.1 to 1
CNc1cc(C)nc(Nc2ccc(OC)c(-n3cc(C4CCCN4)nn3)c2F)n1 (stereo not shown) [Compound A4]	0.01 to 0.1	0.01 to 0.1
CNc1cc(C)nc(Nc2ccc(OC)c(-n3cc(CNC(C)C)cn3)c2F)n1 [Compound A5]	0.1 to 1	> 1
CNc1cc(C)nc(Nc2ccc(Cl)c(-n3cc(CN)cn3)c2Cl)n1 [Compound A6]	< 0.01	0.01 to 0.1
CCNCc1cnn(-c2c(OC)ccc(Nc3nc(C)cc(NC)n3)c2F)c1 [Compound A7]	0.1 to 1	0.1 to 1
CNCc1cnn(-c2c(OC)ccc(Nc3nc(NC)cc(C(C)C)n3)c2F)c1 [Compound A8, N^2-(2-fluoro-4-methoxy-3-[4-[(methylamino)methyl]-1H-pyrazol-1-yl]phenyl)-N^4-methyl-6-(propan-2-yl)pyrimidine-2,4-diamine]	0.01 to 0.1	0.01 to 0.1
CNc1cc(C)nc(Nc2ccc(OC)c(-n3ncc4c3CCNC4)c2F)n1 [Compound A9, N2-(2-fluoro-4-methoxy-3-(4,5,6,7-tetrahydro-1H-pyrazolo[4,3-c]142yridine-1-yl)phenyl)-N4,6-dimethylpyrimidine-2,4-diamine]	0.1 to 1	0.1 to 1
CNC1=Nc2cc(-c3cc4n(n3)CCNC4)c(Cl)cc2C12CCC2 [Compound A10, 5′-chloro-N-methyl-6′-(4,5,6,7-tetrahydropyrazolo[1,5-a]pyrazin-2-yl)spiro[cyclobutane-1,3′-indol]-2′-amine]	0.1 to 1	> 1
CNCc1cn(-c2cc3c(cc2Cl)C2(CCC2)C(NC)=N3)nn1 [Compound A11, 5′-chloro-N-methyl-6′-(4-((methylamino)methyl)-1H-1,2,3-triazol-1-yl)spiro[cyclobutane-1,3′-indol]-2′-amine]	0.01 to 0.1	0.1 to 1
CNC1=Nc2cc(-c3cc4n(n3)CCN(C)C4)c(Cl)cc2C12CCC2 [Compound A12, 5′-chloro-N-methyl-6′-(5-methyl-4,5,6,7-tetrahydropyrazolo[1,5-a]145yrazine-2-yl)spiro[cyclobutane-1,3′-indol]-2′-amine]	> 1	> 1
CNCc1cn(-c2c(Cl)ccc(Nc3nc(C)cc(NC)n3)c2Cl)nn1 [Compound A13, N2-(2,4-dichloro-3-(4-((methylamino)methyl)-1H-1,2,3-triazol-1-yl)phenyl)-N4,6-dimethylpyrimidine-2,4-diamine]	< 0.01	0.01 to 0.1
